Experimental data from patent publication US7446119B2, “Miticidal triazolidine derivatives” (Crompton Corporation, priority 2005, dated 2008).

Experiments:
Tetranychus urticae Koch [1] = assay: Mite adulticide pre-infection test (MI); format: in vivo; settings: cowpea plants sprayed to run off with 300 ppm, adult mites transferred one day after treatment, examined five days later
Protocol: The remaining examples relate to the miticidal use of the compounds of this invention. In all these examples, a stock solution for the compounds was prepared at 3000 ppm by dissolving each compound to be tested in acetone with 0.67% Tween (v/v), a wetting agent. […] For each example that follows, this stock solution was used and the specificized dilutions made. All the tests discussed below, which involved treatment with compounds of this invention were always repeated with controls, in which the active compound was not provided, to permit a comparison upon which the percent control was calculated. One day before treatment of cowpea primary leaves with the test solutions, rings of tree tanglefoot were applied to each of two cowpea primary leaves, one from each of two plants in a pot. For the mite adulticide pre-infection tests, plants were sprayed to run off with a 300 ppm solution diluted from the 3000 ppm stock solution. One day following treatment of the plants with the test solution, groups of approximately 25 adult mites were transferred into the rings. Five days later these rings were examined for live mites remaining on the leaves. The percent control was estimated based on the number of mites surviving on the control plants.

Tetranychus urticae Koch [2] = assay: Mite ovicide test (MIOV); format: in vivo; settings: mite eggs on cowpea leaves, sprayed to run off with 100 ppm, examined nine days after treatment, based on unhatched eggs
Protocol: The remaining examples relate to the miticidal use of the compounds of this invention. In all these examples, a stock solution for the compounds was prepared at 3000 ppm by dissolving each compound to be tested in acetone with 0.67% Tween (v/v), a wetting agent. […] For each example that follows, this stock solution was used and the specificized dilutions made. All the tests discussed below, which involved treatment with compounds of this invention were always repeated with controls, in which the active compound was not provided, to permit a comparison upon which the percent control was calculated. One day before treatment of cowpea primary leaves with the test solutions, rings of tree tanglefoot were applied to each of two cowpea primary leaves, one from each of two plants in a pot. For the mite ovicide tests, groups of adult mites (Tetranychus urticae Koch) were transferred into the rings one day before treatment and the females were allowed to deposit eggs until one hour before treatment, at which point all the adults were removed. The plants were then sprayed to run off with a 100 ppm solution diluted from the 3000 ppm stock solution. Nine days following treatment the ovicide rings were examined for unhatched eggs and living immature mites. The percent control was estimated based on the number of unhatched eggs.

COc1ccc(-c2ccccc2)cc1N1CN(C)CN1C(=O)OC(C)C [Compound 1, 1-methylethyl 2-(4-methoxy-[1,1′-biphenyl]-3-yl)-4-methyl-1,2,4-triazolidine-1-carboxylate]
Percent Control MI (Tetranychus urticae Koch [1]): 100% | Percent Control MIOV (Tetranychus urticae Koch [2]): 100%
